Test results as given in US10723766B2, “Derivatives of gamma-amanitin” (Heidelberg Pharma Research GmbH, priority 2015, dated 2020).

Legend:
SKOV3 cells = experiment: viability of SKOV3 cells treated with amatoxins (FIG. 3); assay type: cell-based
[1] = Zanotti et al., 1989; cited from earlier work
RNA-polymerase II = RNA-polymerase II (Homo sapiens, UniProt P24928); settings: not covalently bound, very tight complex; read-out: KD of complex between amanitin and RNA-polymerase II; cited from earlier work

## CC[C@H](C)[C@@H]1NC(=O)CNC(=O)C2Cc3c([nH]c4cc(O)ccc34)[S@+]([O-])CC(NC(=O)CNC1=O)C(=O)N[C@@H](CC(N)=O)C(=O)N1CC(O)C[C@H]1C(=O)N[C@@H]([C@@H](C)[C@H](C)O)C(=O)N2 (stereo partly drawn) [γ-amanitin (4), γ-amanitin]
SKOV3 cells
  EC50: 0.27 µM

## S-deoxo-γ(R)-hydroxy-isoleucin-amaninamide
[1]
  biological activity: biologically inactive

## amanitin
RNA-polymerase II
  Kd: 0.003 µM
